Experiment [1] concerns HT29 cells. Kind of experiment: Mitochondrial membrane potential by flow cytometry (Rh123/DHR). Type of experiment: cell-based, human. Particulars: HT29, 72 h. From the text: Apoptotic effects induced by anticancer agents can be mediated through two major pathways: intrinsic and extrinsic apoptotic pathways. The intrinsic pathway involves the disruption of the mitochondrial membrane and changes in the mitochondrial membrane potential (MMP), while the extrinsic pathway leads to apoptosis without initial MMP alterations. […] Further investigations are necessary to elucidate the detailed molecular mechanisms underlying their apoptotic effect.
We analyzed the electrochemical gradient across the mitochondrial membrane via analytical flow cytometry, using dihydrorhodamine (DHR). A total of 5 × 10^4 HT29 cells were plated in 24-well plates for this assay. […] Next, the medium was replaced by adding fresh solution with DHR to a final concentration of 5 μg/mL. The cells were incubated at 37 °C for 1 h, washed, and resuspended in PBS with 5 μg/mL of PI. The fluorescence intensity was measured using a FACScan flow cytometer (fluorescence-activated cell sorter). The experiments were performed two times, each with three replications per assay.
Background: A flow cytometer gives signals particle by particle.

Experiment [2] deals with human colon adenocarcinoma (HT29). The experiment in a line: MTT cell viability assay, HT29. Type of experiment: cell-based. As to conditions: for IC80: 80% growth inhibition. The source says:
In this study, we employed the MTT (3-(4,5-dimethyl thiazol-2-yl)-2,5-diphenyltetrazolium bromide) colorimetric assay to evaluate the cytotoxic activity of selected abietanes (compounds 5, 7, 13, 17, and 19) against three tumor cell lines: human colon adenocarcinoma (HT29), human hepatocarcinoma (HepG2), and murine melanoma (B16–F10). The MTT assay relied on the conversion of MTT to formazan by viable cells, with the formazan concentration proportional to the number of viable cells. The concentrations required for 50 and 80% growth inhibition (IC50 and IC80) were determined for each compound.
The human colorectal adenocarcinoma cell line HT29 (ECACC no. 9172201; ATCC no. HTB-38), the human hepatocarcinoma cell line HepG2 (ECACC no. 85011430), the mouse melanoma cells B16–F10 (ATCC no. CRL-6475), and the murine monocyte/macrophage like RAW 264.7 cell line (ATCC no, TIB-71) were obtained from the cell bank of the University of Granada, Spain. The tumor cell lines were cultured in DMEM (Dulbecco’s modified Eagle’s medium) supplemented with 2 mM glutamine, 10% heat-inactivated FCS (fetal calf serum), and 50 μg/mL of gentamicin (for all cancer cell lines). The RAW 264.7 cell line was cultured in RPMI1640 medium, supplemented with 2 mM glutamine, 10% heat-inactivated FCS, and 50 μg/mL of gentamicin. All cell lines were incubated at 37 °C, in an atmosphere of 5% CO2 and 95% humidity. The culture media were changed every 48 h, and the confluent cultures were separated with a trypsin solution (0.25% EDTA). In all experiments, monolayer cells were grown to 80–90% confluence in sterile cell culture flasks.
The effects of the compounds on the cell viability were established using the MTT method (Sigma, St. Louis, MO, USA). The cytotoxicity of the compounds was assessed by measuring the absorbance of MTT dye staining of metabolically competent cells. The cells were cultivated in 96-well plates at 6.0 × 10^3 cells/mL for the HT29 and RAW 264.7 cell lines, at 5.0 × 10^3 cells/mL for B16–F10 cells, and 15.0 × 10^3 cells/mL for the HepG2 cell line, with a final volume of 200 μL per well being incubated with the different products (0–100 μg/mL). After 72 h, 100 μL of MTT solution (0.5 mg/mL) in 50% of PBS and 50% of the medium was added to each well. Following incubation for 1.5 h, formazan was resuspended in 100 μL of DMSO, and each concentration was tested in triplicate. The cell viability relative to the untreated control cells was determined by measuring the absorbance at 570 nm using an ELISA plate reader (Tecan Sunrise MR20–301, TECAN, Grödig, Austria).
For orientation: Tetrazolium assays rely on reduction of a dye to a coloured formazan, in cell work by metabolically active cells.

The test system of experiment [3] is NO release in LPS-stimulated RAW 264.7 macrophage cells. The experiment in a line: Inhibition of nitric oxide production (Griess nitrite assay) in LPS-activated RAW 264.7 macrophages. Particulars: LPS-stimulated RAW 264.7, 48 h; for NO inhibition: ¾ IC50 concentration; for IC50: Mus musculus, RAW264.7. Type of experiment: cell-based, murine. The method, then:
To evaluate the anti-inflammatory activity of the rearranged abietanes (5, 7, 17, and 19) along with their precursor 13, we conducted experiments on RAW 264.7 macrophage cells, a well-known model for screening anti-inflammatory compounds. The macrophages were stimulated with LPS to induce the maximum release of nitric oxide (NO) during the inflammatory response. Subsequently, the different compounds were incubated with the cells at sub-cytotoxic concentrations for 48 h (Figure 9). Next, we determined the concentration of nitrites in the culture medium, which was proportional to the amount of NO release.
Nitrite production was analyzed using the Griess reaction method. The concentration of nitrite was used as an indication of nitric oxide (NO) production. RAW 264.7 cells were seeded at 6 × 10^4 cells/well in 24-well cell culture plates, supplemented with 10 μg/mL of lipopolysaccharide (LPS). […] The Griess reaction was conducted by mixing 150 μL of supernatant test samples or sodium nitrite standard (0–120 μM) with 25 μL of Griess reagent A (0.1% n-(1-naphthyl) ethylenediamine dihydrochloride) and 25 μL of Griess reagent B (1% sulfanilamide in 5% of phosphoric acid) in a 96-well plate. The mixture was incubated at room temperature for 15 min, after which the absorbance was measured at 540 nm using an ELISA plate reader (Tecan Sunrise MR20–301, TECAN, Grödig, Austria). To determine the concentration of nitrite in each sample supernatant, the absorbance was referenced to the nitrite standard curve. To determine the percentage of NO production, the increase between the negative control (untreated cells) and the positive control (cells only with 10 μg/mL of LPS) was assigned 100%.

Experiment [4] concerns HT29 cells. Kind of experiment: HT29 cell cycle analysis (PI flow cytometry). Particulars: HT29, 72 h. Type of experiment: cell-based, human. On the procedure: Flow cytometry was employed to assess the impact of compounds 5 and 13 on the cell cycle profiles of HT29 cells after 72 h of treatment; by using propidium iodide (PI) incorporation, whose fluorescence directly correlated with DNA content, we analyzed the distribution of cells in different cell cycle phases.
The amount of DNA in the different phases of the cell cycle (G0/G1, S, and G2/M) was quantified using flow cytometry after staining with propidium iodide (PI). HT29 cells were seeded at a density of 5 × 10^4 cells per well in 24-well plates containing 1.5 mL of culture medium. […] Next, the cells were washed twice with PBS, trypsinized, and resuspended in 1 × TBS (10 mM Tris and 150 mM NaCl). After this, Vindelov buffer (100 mM Tris, 100 mM NaCl, 10 mg/mL Rnase, 1 mg/mL PI, and 0.1% Triton x-100, pH 8) was added. Finally, the cells were kept on ice and stained with 20 μL of 1 mg/mL PI solution before being measured. Each experiment analyzed approximately 10 × 10^3 cells. The experiments were performed twice, each with three replications per assay. The samples were analyzed using a flow cytometer, and the number of cells in each stage of the cell cycle was estimated by […] cell sorting (FACS) at 488 nm in an Epics XL flow cytometer (Coulter Corporation, Hialeah, FL, USA).

Setting [5] is: Homo sapiens, HT-29, 72 h, read-out: IC50.

Values after ≈ are worked out from the molar mass of the structure shown. Read-outs that look alike come from different tables or passages of the source.

With `CC(C)C1=CC2=C(C(=O)C1=O)C1=CC(=O)CC(C)(C)[C@@]1(C)C=C2` [Compound 5, Pygmaeocin B], the figures for the “decrease in positive Rh123-stained cells with regard to untreated control” value in the experiment on HT29 cells [1] (IC50 concentration) and in the experiment with HT29 cells [1] (IC80 concentration) were 54% and 61%, respectively. Moreover, the 80% effect level in experiment [2] (Homo sapiens, HT-29, 72 h) (IC80) was put at 9.73 ± 1.18 µg/mL (≈ 31.3 µM). In addition, the IC50 – broadly, the point on the concentration scale where inhibition reaches its midpoint – in experiment [2] (setting [5]) turned out to be 6.69 ± 1.18 µg/mL (≈ 21.6 µM); in experiment [3], 0.033 ± 0.0008 µg/mL (≈ 0.106 µM). In addition, the NO inhibition in experiment [3] came out at 100%. Also, the “increase in the cell population in the S phase compared with the control” value was 4% in the experiment on HT29 cells [4] (IC50 dose) and 10% with HT29 cells [4] (IC80 dose).

Regarding `CC(C)C1=CC2=C(C(=O)C1=O)[C@@]1(C)CCCC(C)(C)[C@@H]1CC2` [Compound 13], the “decrease in positive Rh123-stained cells with regard to untreated control” value in the experiment on HT29 cells [1] (IC50 concentration) is given as “around 40%”; in the experiment on HT29 cells [1] (IC80 concentration), 57%. Further, the IC50 worked out at 2.67 ± 0.82 µg/mL (≈ 8.89 µM) in experiment [2] (72 h, listed as Precursor (13)); 2.7 ± 0.8 µg/mL (≈ 8.99 µM) in experiment [2] (setting [5]); 2.03 ± 0.09 µg/mL (≈ 6.76 µM) in experiment [3]. The 80% effect level in experiment [2] (Homo sapiens, HT-29, 72 h) (IC80) was put at 5.19 ± 0.68 µg/mL (≈ 17.3 µM). The same compound gave an NO inhibition in experiment [3] of 99.6%. Also, the “increase in the cell population in the S phase compared with the control” value with HT29 cells [4] (regardless of the administered dose (IC50 and IC80)) is 10%.

Source of the values: article PMC10487843, “Evaluation of Anticancer and Anti-Inflammatory Activities of Some Synthetic Rearranged Abietanes” (International Journal of Molecular Sciences, 2023).
